For three molecules, inhibition results are on record in ChEMBL document CHEMBL3627608, “Crystal structures of human RIP2 kinase catalytic domain complexed with ATP-competitive inhibitors: Foundations for understanding inhibitor selectivity” (Bioorg Med Chem, 2015).

Each structure is given as a SMILES string.

In test [1] the target is T1, Dual specificity tyrosine-phosphorylation-regulated kinase 3 (Homo sapiens) (UniProt O43781).
T1 sequence (whole entry): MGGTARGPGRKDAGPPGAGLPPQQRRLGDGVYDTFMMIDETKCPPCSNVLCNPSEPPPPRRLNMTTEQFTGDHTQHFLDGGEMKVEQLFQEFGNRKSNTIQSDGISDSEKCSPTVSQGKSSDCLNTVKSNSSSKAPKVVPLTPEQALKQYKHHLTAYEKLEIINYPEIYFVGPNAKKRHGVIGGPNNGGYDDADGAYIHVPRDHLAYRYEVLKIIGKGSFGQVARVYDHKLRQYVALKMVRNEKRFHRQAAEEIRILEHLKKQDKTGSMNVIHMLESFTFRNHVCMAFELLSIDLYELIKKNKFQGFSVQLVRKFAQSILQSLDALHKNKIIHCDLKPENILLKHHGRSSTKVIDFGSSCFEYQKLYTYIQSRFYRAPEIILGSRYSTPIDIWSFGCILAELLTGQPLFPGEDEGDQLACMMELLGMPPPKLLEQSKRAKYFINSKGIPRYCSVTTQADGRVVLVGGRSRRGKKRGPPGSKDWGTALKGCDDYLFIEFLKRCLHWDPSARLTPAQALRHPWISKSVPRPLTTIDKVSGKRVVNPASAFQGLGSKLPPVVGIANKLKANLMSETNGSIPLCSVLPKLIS
Put plainly: Inhibition of DYRK3 (unknown origin) at 10 uM after 120 mins P33 radiolabeled kinase activity assay.

For test [2], the target named is T2, Ephrin type-A receptor 6 (Homo sapiens) (UniProt Q9UF33).
T2 sequence (whole entry): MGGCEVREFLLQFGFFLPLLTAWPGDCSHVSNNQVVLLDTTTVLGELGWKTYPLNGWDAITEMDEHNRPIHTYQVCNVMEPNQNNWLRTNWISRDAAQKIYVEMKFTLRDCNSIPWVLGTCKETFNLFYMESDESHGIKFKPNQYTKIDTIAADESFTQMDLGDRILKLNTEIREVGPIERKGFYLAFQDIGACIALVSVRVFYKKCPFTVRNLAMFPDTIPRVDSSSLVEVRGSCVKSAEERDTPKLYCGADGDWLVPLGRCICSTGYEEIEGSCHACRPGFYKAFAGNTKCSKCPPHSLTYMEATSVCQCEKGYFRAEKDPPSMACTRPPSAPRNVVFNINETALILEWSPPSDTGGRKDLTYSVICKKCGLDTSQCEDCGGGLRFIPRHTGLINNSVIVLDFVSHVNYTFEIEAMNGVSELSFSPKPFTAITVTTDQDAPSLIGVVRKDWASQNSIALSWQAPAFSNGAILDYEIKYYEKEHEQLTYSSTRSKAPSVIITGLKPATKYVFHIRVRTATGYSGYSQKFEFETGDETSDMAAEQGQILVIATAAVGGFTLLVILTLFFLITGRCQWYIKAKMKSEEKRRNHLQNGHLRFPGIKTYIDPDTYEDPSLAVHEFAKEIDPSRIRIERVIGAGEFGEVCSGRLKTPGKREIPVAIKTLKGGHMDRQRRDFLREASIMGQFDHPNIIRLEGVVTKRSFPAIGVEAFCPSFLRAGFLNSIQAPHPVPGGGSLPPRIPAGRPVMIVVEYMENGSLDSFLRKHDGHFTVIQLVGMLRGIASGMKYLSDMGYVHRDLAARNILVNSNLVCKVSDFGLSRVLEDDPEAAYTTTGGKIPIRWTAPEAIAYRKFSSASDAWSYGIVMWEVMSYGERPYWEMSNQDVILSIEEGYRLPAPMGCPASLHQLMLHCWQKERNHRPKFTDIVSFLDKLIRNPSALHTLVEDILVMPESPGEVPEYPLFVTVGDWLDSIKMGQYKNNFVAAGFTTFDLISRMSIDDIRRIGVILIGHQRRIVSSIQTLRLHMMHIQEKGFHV
As to the kind of experiment: Inhibition of EPHA6 (unknown origin) at 10 uM after 120 mins P33 radiolabeled kinase activity assay.

Test [3] addresses Vascular endothelial growth factor receptor 1 (Homo sapiens) (UniProt P17948). As to the kind of experiment: Inhibition of FLT1 (unknown origin) at 10 uM after 120 mins P33 radiolabeled kinase activity assay.
Test [4] concerns the target T3, Serine/threonine-protein kinase D1 (Homo sapiens) (UniProt Q15139).
T3 sequence (whole entry): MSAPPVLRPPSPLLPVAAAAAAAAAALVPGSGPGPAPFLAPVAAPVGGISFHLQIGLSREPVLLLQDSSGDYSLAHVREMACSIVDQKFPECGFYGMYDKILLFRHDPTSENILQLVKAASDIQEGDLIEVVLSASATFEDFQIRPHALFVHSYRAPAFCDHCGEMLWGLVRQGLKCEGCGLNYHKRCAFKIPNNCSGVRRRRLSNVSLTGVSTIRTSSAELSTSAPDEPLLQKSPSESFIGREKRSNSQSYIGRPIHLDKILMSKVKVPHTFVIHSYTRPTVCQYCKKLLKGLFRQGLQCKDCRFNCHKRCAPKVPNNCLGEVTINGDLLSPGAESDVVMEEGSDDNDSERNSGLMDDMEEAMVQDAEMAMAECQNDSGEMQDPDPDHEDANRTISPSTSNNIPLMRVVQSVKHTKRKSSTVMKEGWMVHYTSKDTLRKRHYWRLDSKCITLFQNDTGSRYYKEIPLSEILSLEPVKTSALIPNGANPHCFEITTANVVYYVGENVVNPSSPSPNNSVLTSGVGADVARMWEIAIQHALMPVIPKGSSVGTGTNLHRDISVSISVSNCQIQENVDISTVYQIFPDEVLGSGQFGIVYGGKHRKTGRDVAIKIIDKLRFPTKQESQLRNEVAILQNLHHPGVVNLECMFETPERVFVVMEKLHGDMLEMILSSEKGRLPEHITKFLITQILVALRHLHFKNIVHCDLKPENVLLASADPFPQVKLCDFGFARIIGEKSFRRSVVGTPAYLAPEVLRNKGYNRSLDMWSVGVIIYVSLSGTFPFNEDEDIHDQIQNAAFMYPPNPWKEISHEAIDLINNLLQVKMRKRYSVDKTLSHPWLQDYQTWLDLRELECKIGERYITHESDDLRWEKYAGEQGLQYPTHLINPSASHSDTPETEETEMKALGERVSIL
Put plainly: Inhibition of PKCmu (unknown origin) at 10 uM after 120 mins P33 radiolabeled kinase activity assay.

Test [5] deals with Tyrosine-protein kinase Lyn (Homo sapiens) (UniProt P07948). Put plainly: Inhibition of LYN B (unknown origin) at 10 uM after 120 mins P33 radiolabeled kinase activity assay.
Chain of Tyrosine-protein kinase Lyn (Homo sapiens) (P07948 2-512 limits assumed): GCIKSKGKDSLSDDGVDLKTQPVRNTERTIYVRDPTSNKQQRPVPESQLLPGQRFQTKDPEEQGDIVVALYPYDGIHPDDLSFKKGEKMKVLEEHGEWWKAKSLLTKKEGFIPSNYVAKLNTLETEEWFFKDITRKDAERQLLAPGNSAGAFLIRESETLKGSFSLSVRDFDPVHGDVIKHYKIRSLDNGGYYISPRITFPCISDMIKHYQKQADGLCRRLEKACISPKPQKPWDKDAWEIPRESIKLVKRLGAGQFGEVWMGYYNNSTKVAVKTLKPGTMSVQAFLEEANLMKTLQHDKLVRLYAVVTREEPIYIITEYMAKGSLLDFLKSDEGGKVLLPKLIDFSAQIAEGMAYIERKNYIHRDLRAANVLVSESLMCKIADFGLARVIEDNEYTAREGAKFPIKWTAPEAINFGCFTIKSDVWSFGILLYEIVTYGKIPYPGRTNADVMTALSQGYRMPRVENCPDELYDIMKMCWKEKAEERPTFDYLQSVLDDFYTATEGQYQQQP
For test [6], the target named is CDK2/Cyclin A1 (Homo sapiens) (UniProt P24941+P78396). As to the kind of experiment: Inhibition of CDK2/Cyclin A1 (unknown origin) at 10 uM after 120 mins P33 radiolabeled kinase activity assay. It counts as protein-complex assay.

Chain of Vascular endothelial growth factor receptor 1 (Homo sapiens) (P17948 whole entry): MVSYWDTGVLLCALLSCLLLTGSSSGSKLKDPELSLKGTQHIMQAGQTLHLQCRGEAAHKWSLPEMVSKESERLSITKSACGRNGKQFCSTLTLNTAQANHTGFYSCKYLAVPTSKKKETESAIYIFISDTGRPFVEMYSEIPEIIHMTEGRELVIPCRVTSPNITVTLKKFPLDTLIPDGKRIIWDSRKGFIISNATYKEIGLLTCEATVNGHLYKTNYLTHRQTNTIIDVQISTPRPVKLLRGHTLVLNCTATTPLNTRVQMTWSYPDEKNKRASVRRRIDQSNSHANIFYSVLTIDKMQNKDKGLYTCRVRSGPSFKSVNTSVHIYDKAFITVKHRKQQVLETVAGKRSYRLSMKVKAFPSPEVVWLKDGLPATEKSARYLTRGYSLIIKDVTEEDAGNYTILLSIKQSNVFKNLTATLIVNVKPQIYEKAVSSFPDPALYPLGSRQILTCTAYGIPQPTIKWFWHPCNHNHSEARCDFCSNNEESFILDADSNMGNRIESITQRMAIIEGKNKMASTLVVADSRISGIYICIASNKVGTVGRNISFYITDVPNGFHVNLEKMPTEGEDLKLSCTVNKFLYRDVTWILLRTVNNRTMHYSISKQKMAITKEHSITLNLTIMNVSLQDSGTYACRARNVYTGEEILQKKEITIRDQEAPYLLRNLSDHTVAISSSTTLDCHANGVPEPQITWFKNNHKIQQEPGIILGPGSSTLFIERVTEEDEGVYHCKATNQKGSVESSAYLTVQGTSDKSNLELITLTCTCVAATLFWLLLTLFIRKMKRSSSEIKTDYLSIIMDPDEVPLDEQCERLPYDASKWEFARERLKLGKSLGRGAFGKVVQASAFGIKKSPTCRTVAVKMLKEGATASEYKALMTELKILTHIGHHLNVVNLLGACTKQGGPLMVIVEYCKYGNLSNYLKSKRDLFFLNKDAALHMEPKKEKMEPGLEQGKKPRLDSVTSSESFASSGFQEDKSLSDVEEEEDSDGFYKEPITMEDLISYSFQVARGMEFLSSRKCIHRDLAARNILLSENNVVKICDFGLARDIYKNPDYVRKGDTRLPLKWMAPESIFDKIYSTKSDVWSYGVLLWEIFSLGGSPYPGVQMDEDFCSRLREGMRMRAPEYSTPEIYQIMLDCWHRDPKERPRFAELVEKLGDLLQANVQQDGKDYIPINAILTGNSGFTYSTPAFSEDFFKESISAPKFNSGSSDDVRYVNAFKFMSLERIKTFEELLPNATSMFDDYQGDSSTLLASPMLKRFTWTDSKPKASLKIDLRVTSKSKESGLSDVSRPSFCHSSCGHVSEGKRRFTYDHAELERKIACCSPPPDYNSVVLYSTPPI

In general, inhibition refers to the drop in the measured response relative to a control, in per cent. `CS(=O)(=O)c1cccc(Nc2nccc(-c3sc(N4CCOCC4)nc3-c3cccc(NS(=O)(=O)c4c(F)cccc4F)c3)n2)c1`: the inhibition in test [1] was 10.3%; in test [2], 95.8%; in test [3], 98%; in test [4] it was 100%; in test [5] it was 100%; in test [6] it was 43.5%.

Regarding `CC(C)(C)c1cc(NC(=O)Nc2ccc(Oc3ccncc3)cc2)no1`, the inhibition in test [1] came out at 71.4%; in test [2], 93.7%; in test [3], 97.5%; in test [4], 19.5%; in test [5], 94.8%; in test [6], 51.4%.

Turning to `COCCNC(=O)c1ccc2c(c1)nc(-c1cnc(-c3ccc(Cl)cc3)[nH]1)n2CCOC`, the inhibition in test [1] came out at 8.42%; in test [2], 31.7%; in test [3], 0.33%; in test [4], 12.1%; in test [5], 41.5%; in test [6], 18.1%.
